Experimental data reported in ChEMBL document CHEMBL6092169, “Development of selective heterocyclic PDE4 inhibitors for treatment of psoriasis” (Eur J Med Chem, 2024).

Tests used:
RAW264.7 [1] = test: Anti-inflammatory activity in mouse RAW264.7 cells assessed as inhibition of LPS-induced TNF-alpha production at 10 uM incubated for 24 hrs by ELISA relative to control; type: functional; design: scale not given: the % may be the effect or the level left
[2] = target: T1, 3',5'-cyclic-AMP phosphodiesterase 4D (Homo sapiens, UniProt Q08499); test: Inhibition of full-length PDE4D2 (unknown origin) using FAM-cAMP as substrate preincubated with compound for 15 mins followed by substrate addition and measured after 30 mins by fluorescence polarization based IMAP assay
T1 sequence (Q08499 whole entry): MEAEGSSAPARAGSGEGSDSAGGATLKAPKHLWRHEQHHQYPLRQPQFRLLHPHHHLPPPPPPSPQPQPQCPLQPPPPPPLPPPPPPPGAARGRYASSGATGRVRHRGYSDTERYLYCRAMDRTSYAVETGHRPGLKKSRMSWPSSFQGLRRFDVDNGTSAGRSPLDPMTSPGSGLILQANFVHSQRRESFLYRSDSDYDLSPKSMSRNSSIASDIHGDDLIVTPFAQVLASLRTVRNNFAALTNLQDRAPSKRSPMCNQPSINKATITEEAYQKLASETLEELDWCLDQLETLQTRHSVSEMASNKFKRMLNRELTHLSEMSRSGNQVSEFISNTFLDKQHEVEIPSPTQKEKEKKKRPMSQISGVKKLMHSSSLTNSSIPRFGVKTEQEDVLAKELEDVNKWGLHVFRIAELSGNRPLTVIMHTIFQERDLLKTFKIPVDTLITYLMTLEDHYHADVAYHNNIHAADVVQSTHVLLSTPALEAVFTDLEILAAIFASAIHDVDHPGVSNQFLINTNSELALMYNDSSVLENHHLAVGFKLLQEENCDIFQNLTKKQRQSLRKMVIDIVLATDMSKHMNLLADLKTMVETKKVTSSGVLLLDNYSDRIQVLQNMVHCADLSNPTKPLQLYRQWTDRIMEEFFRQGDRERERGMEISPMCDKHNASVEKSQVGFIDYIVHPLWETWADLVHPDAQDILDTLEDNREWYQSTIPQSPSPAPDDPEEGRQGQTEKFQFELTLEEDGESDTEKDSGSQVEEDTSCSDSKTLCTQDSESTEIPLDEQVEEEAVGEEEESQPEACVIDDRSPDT

[3] = target: T1, 3',5'-cyclic-AMP phosphodiesterase 4D; test: Inhibition of full-length PDE4D2 (unknown origin) using FAM-cAMP as substrate at 1 uM preincubated with compound for 15 mins followed by substrate addition and measured after 30 mins by fluorescence polarization based IMAP assay relative to control; details: time 45.0 min
RAW264.7 [4] = test: Anti-inflammatory activity in mouse RAW264.7 cells assessed as inhibition of LPS-induced TNF-alpha production incubated for 24 hrs by ELISA; type: functional, cell-based; details: RAW264.7, 24 h

SMILES	IC50 [2] [nM]	inhibition [3] [%]	IC50 (RAW264.7 [4]) [nM]	Activity (RAW264.7 [1]) [%]
COc1cc(-c2nc(C(=O)Nc3ccc4ncsc4c3)c[nH]2)cc(OC)c1OC(F)F	–	8.4	–	–
O=C(NCc1ncccn1)c1c[nH]c(-c2cc(OCC3CC3)c(OC(F)F)c(OCC3CC3)c2)n1	–	1.8	–	–
Cn1ccc(NC(=O)c2c[nH]c(-c3ccc(OC(F)F)c(OCC4CC4)c3)n2)n1	–	58.8	–	18.46
O=C(O)c1coc(-c2ccc(OC(F)F)c(OCC3CC3)c2)n1	–	46.2	–	10.47
O=C(NCc1ccccn1)c1c[nH]c(-c2ccc(OC(F)F)c(OCC3CC3)c2)n1	–	96.7	–	6.39
O=C(NCc1c(F)cccc1F)c1c[nH]c(-c2ccc(OC(F)F)c(OCC3CC3)c2)n1	15.9	–	–	13.88
Cn1cc(NC(=O)c2c[nH]c(-c3ccc(OC(F)F)c(OCC4CC4)c3)n2)cn1	–	78.8	–	27.5
O=C(NCc1c(F)cc(F)cc1F)c1coc(-c2ccc(OC(F)F)c(OCC3CC3)c2)n1	–	87.8	–	7.53
O=C(NCc1ccc(F)c(F)c1)c1c[nH]c(-c2ccc(OC(F)F)c(OCC3CC3)c2)n1	14.9	–	–	12.03
Cc1ccc(-c2nc(C(=O)Nc3ccncc3)c[nH]2)cc1C	–	3.4	–	11.94

The next lines start with results.

IC50 [2] [nM]	inhibition [3] [%]	IC50 (RAW264.7 [4]) [nM]	SMILES	Activity (RAW264.7 [1]) [%]
4.74	–	–	O=C(NCc1ccc(F)cc1F)c1c[nH]c(-c2ccc(OC(F)F)c(OCC3CC3)c2)n1	5.16
–	93.6	–	O=C(NCc1cc(F)ccc1F)c1c[nH]c(-c2ccc(OC(F)F)c(OC(F)F)c2)n1	14.69
–	57	–	O=C(Nc1nccs1)c1coc(-c2ccc(OC(F)F)c(OCC3CC3)c2)n1	11.17
–	82.3	–	O=C(NCc1ccc2ccccc2c1)c1c[nH]c(-c2ccc(OC(F)F)c(OCC3CC3)c2)n1	9.03
–	91.1	–	O=C(NCc1ccccc1)c1c[nH]c(-c2ccc(OC(F)F)c(OCC3CC3)c2)n1	8.88
–	33.3	–	COc1cc(-c2nc(C(=O)NCc3c(F)cccc3F)c[nH]2)cc(OC)c1OC(F)F	–
–	74.3	59900	O=C(Nc1nccs1)c1c[nH]c(-c2ccc(OC(F)F)c(OCC3CC3)c2)n1	–
–	88.4	–	O=C(NCc1ccc(F)cc1F)c1c[nH]c(-c2ccc(OC(F)F)c(OC(F)F)c2)n1	14.32
–	59	–	O=C(Nc1ccncc1)c1coc(-c2ccc(OC(F)F)c(OCC3CC3)c2)n1	1.77
